Results on 5 molecules are retold here after US20100130581A1, “COMPOUNDS AND METHODS FOR THE TREATMENT OF PAIN” (THE UNIVERSITY OF QUEENSLAND, priority 2006, published 2010).

Where a SMILES comes first, the peptide text is derived from it. [ ]: non-standard residue; d: D form. ξ: configuration not given here. Dmt = Cc1cc(O)cc(C)c1C[C@H](N)C(=O)O; ξGly(decyl) = CCCCCCCCCCC(N)C(=O)O

Usually Ki stands for a dissociation constant, usually derived from enzyme kinetics or from competition with a known ligand. Low readings indicate tighter binding, high ones weaker binding. As usually defined, the IC50 is the concentration at which inhibition is half-maximal. As a reminder, the half-life is the time needed for the level to fall by half in the phase considered. Higher therefore signals slow loss.

One series deals with T1, μ-opioid receptor (Homo sapiens, UniProt P35372).
T1 construct: SH-SY5Y cells endogenously expressing μ- and δ-opioid receptors; endogenous in cells; host or cells: SH-SY5Y cells
T1 sequence (P35372 whole entry): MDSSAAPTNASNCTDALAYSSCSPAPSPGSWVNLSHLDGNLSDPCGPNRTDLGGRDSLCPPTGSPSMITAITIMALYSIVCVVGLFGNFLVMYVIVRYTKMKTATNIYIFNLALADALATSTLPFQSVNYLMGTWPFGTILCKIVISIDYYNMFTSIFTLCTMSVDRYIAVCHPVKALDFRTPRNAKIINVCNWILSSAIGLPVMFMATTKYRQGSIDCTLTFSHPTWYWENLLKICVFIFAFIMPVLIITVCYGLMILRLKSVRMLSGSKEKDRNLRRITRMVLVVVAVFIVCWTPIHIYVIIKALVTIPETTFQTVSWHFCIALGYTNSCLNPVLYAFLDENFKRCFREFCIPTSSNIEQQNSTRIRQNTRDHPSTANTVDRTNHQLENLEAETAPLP
As to the kind of experiment: Whole cell-based binding assay, displacement of 3H-DAMGO. As to the method: Media was removed and cells were washed with PBS before pre-incubation in 300 μL of binding buffer. Binding studies were performed with 100 μL of appropriate concentrations of ^3H-labeled DAMGO (a selective μ-opioid receptor agonist) and 100 μL of competitor or blank in binding buffer at 37° C. for 60 min. Competition binding experiments were performed using […] of ^3H-labelled DAMGO in the absence or presence of increasing concentrations of unlabeled derivatised endomorphins or derivatised endomorphin analogs. A 1 μM excess of unlabelled DAMGO was used to determine non-specific binding. Following incubation, the cells were washed with PBS and recovered from culture plates using 500 μL of […] before transfer to scintillation vials. Liquid scintillation cocktail (Ultima Gold, Packard, Meriden, USA) was added to these vials for counting in a liquid scintillation analyser. Data are expressed as the mean±SEM of % specific binding of triplicate determinations performed on at least three independent plates of cells. Data were plotted using the one-site competition functions of the PRISM program (Graphpad Inc., San Diego, USA) (see FIGS. 1a, 1b and 7).
In general terms: In a radioligand displacement assay an active substance lowers the binding of a labelled ligand.

Series [1] concerns μ- and δ-opioid receptors. As to the kind of experiment: Cell based assay of cAMP inhibition in forskolin treated SH-SY5Y cells. To be noted: for IC50: Efficacy SH-SY5Y cell line; for Inhibit c-AMP (%): SH-SY5Y cell line, normalised to the % of cAMP inhibition seen by native endomorphin-1. As to the method:
SH-SY5Y cells endogenously expressing μ- and δ-opioid receptors were cultured (100 μl) in a 96 well-plate and incubated (usually overnight) until 80% confluent. Once cells were ready for assay, Endo-1, Endo-2 and derivatives/analogs were diluted in DMEM culture medium containing 30 μM forskolin. The diluted derivatised endomorphins or derivatised endomorphin analogs were then applied to separate wells for agonist studies and co-incubated for antagonist studies. Cells were incubated with derivatised endomorphins or derivatised endomorphin analogs at 37° C. for 30 minutes, medium was aspirated and cells were lysed using lysis buffer from a cAMP Biotrak EIA kit (Amersham, Buckinghamshire, UK). An anti-cAMP antibody was added to the lysate, and the mixture incubated at 4° C. for 2 hours followed by the addition of a cAMP peroxidase conjugate, and incubated at 4° C. for a further hour. A 3,3′5,5′-tetramethylbenzidine (TMB) substrate provided by the Biotrak EIA kit was then incubated with cell lysate for 1 hour and finally 1 […] was added to facilitate a colour change, which is proportional to the amount of cAMP captured. A cAMP standard curve from 0 to 3200 fmol was also generated concurrently. Plates were then read by a plate reader at 450 nm and compared back to the cAMP standard curve. All data are compared to the maximum cAMP response to forskolin and are represented as the mean+/−standard error of three experiments performed in triplicate. All data are plotted using PRISM program (GraphPad, San Diego, Calif.) (see FIGS. 2a and 2b).

A short description of the next series: Plasma stability assay. In kind it is in vitro ADME. The settings on record: male, human, plasma at 37° C. How it is done:
To measure the enzymatic stability of endomorphin-1 analogs in plasma, blood was taken from a healthy volunteer and the blood was centrifuged at 1700 rpm for 30 minutes to remove blood cells. The plasma was placed into a water bath heated at 37° C. and Endomorphin-1 and analog was added to give final concentrations of 0.7 mg/mL. Samples were incubated for varying time periods between 0 and 180 minutes. 50 μL of sample was taken at each time-point and 75 μL of acetonitrile was added to quench any enzyme activity. The samples were then placed on ice and upon completion of the assay, all samples were centrifuged at 9000 rpm for 3 minutes to remove all precipitated plasma proteins. The amount of intact peptide remaining in the supernatent of each sample was determined using RP HPLC by measuring the area under the curve of the peak at the appropriate retention time compared to a standard curve of concentration for each peptide (see FIG. 8).

Series [2] deals with gastrointestinal motility. Nature of the series: Gut motility study (charcoal meal). In kind it is in vivo, rat. The settings on record: rats, single i.v. bolus. How it is done: Each dose of Compound 8, morphine and vehicle was administered to naïve rats as a 100 μL i.v. bolus injection via an indwelling cannula surgically implanted into the jugular vein at least 12 h prior to dose administration. Rats were anaesthetised with 3% isoflurane: 97% oxygen inhalational anaesthetic. A 1 cm incision was made on the right ventral side of the trachea. Using blunt dissection, the jugular vein was exposed and a small incision made to allow cannula insertion. The cannula was inserted into the vein, its integrity assessed, and tied into place using sterile sutures. The wound was sutured, the cannula was exteriorised at the back of the neck and secured using a metal spring. The rats were kept warm during surgical recovery. Animals were housed singly for the remainder of the experimentation period. Rats were inspected regularly from the time of surgery with respect to exploring behaviour, body weight and water intake. No adverse signs from the surgery were observed.
Charcoal meal was prepared by mixing 10% charcoal and 5% arabic gum in distilled, deionised water. Each rat received a single oral gavage of charcoal meal. Thirty minutes later the animal was euthanised using CO2 asphyxiation and the intestine was removed and measured. The distance from the pyloric sphincter to the caudal end of the charcoal and the total distance of the small intestine to the distal part of the ileum were measured in cm. Gastrointestinal motility was determined as the distance traveled by the charcoal relative to the total length of the small intestine, expressed as a percentage.
Each rat received a single bolus i.v. dose of Compound 8, morphine or vehicle. Animals received either vehicle (n=5), morphine at 1 mg/kg (n=3), 2 mg/kg (n=5), 10 mg/kg (n=5) and 30 mg/kg (n=2) or Compound 8 at 0.3 mg/kg (n=3), 1 mg/kg (n=5), 3 mg/kg (n=4), and 10 mg/kg (n=3). Thirty minutes after i.v. dosing an oral gavage of charcoal meal was administered under light (50%:50% CO2:O2) anaesthesia. Thirty minutes later the animal was euthanised via CO2 asphyxiation and the intestine was removed and the distance moved by the charcoal meal was measured.
The intestine was measured for distance of charcoal meal traveled in the small intestine and total length of small intestine. The % distance of charcoal transit was assessed relative to the total length of the small intestine. % inhibition of gastrointestinal motility by morphine or Compound 8 was calculated by the following equation: [(average % charcoal transit in vehicle rats)−(% distance charcoal transit)×100]/(average % charcoal transit in vehicle rats).

`CCCCCCC(N)C(=O)N[C@@H](Cc1c(C)cc(O)cc1C)C(=O)N1CCC[C@H]1C(=O)N[C@@H](Cc1c[nH]c2ccccc12)C(=O)N[C@@H](Cc1ccccc1)C(N)=O` (single isomer, unassigned) [Compound 7] showed a Ki on μ-opioid receptor of 0.071 nM. Also, in series [1], the IC50 was found to be 0.189 nM and the “Inhibit c-AMP (%)” value stood at 153%. In “Plasma stability assay”, this molecule had a half-life at 0.7 mg/mL of 4.55 min.
As for `CCCCCCCCCCC(N)C(=O)N[C@@H](Cc1ccc(O)cc1)C(=O)N1CCC[C@H]1C(=O)N[C@@H](Cc1c[nH]c2ccccc12)C(=O)N[C@@H](Cc1ccccc1)C(N)=O` (stereo partly drawn) [Compound 2] (H-[ξGly(decyl)]YPWF-NH2), the affinity at μ-opioid receptor corresponds to a Ki of 35.5 nM. Moreover, in series [1], the “Inhibit c-AMP (%)” value was found to be 89%.
At μ-opioid receptor, `CCCCCCCCCCC(N)C(=O)N[C@@H](Cc1c(C)cc(O)cc1C)C(=O)N1CCC[C@H]1C(=O)N[C@@H](Cc1c[nH]c2ccccc12)C(=O)N[C@@H](Cc1ccccc1)C(N)=O` (stereo partly drawn) [Compound 9] (H-[ξGly(decyl)][Dmt]PWF-NH2) came in with a Ki of 0.735 nM. In series [1], this molecule yielded an IC50 of 0.928 nM. For the same molecule, the half-life at 0.7 mg/mL in “Plasma stability assay” amounted to 20.3 min.
`CCCCCCC(N)C=N[C@@H](Cc1ccc(O)cc1)C(=O)N1CCC[C@H]1C(=O)N[C@@H](Cc1c[nH]c2ccccc12)C(=O)N[C@@H](Cc1ccccc1)C(N)=O` (stereo partly drawn) [Compound 10] showed a Ki at μ-opioid receptor of 42.4 nM.
Consider `CN1CC[C@]23c4c5ccc(O)c4O[C@H]2[C@@H](O)C=C[C@H]3[C@H]1C5` [morphine, reference compound], for which, in series [2] (1 and 2 mg/kg), the “inhibition of gastrointestinal motility, in words” value is listed as “did not significantly (p>0.05) inhibit gastrointestinal motility”. For the same molecule, in series [2] (10 and 30 mg/kg), the “inhibition of gastrointestinal transit, in words” value is reported as “significant (p<0.05) inhibition of gastrointestinal transit”.
